Test results reported in article PMC11597446, “Using the Cocrystal Approach as a Promising Drug Delivery System to Enhance the Dissolution and Bioavailability of Formononetin Using an Imidazole Coformer” (Pharmaceuticals, 2024).
Entries after “also recorded” stand apart in the source; their conditions may differ. Like-named read-outs stand apart in the source and are kept apart here.

How the values were obtained:
[1] = Rat oral pharmacokinetics; type: in vivo, Male Sprague-Dawley rats; details: rats, oral 20 mg FMN/kg
Experimental: The study was carried out in rats at a 20 mg FMN/kg dose. The plasma concentration profiles and the PK parameters are presented in Figure 9 and Table 4, respectively.
The experiments were carried out in accordance with the Guidelines for Animal Experimentation of Nonclinical Center, Chaon Co. Ltd. (Yongin, Republic of Korea) and approved by the Animal Ethics Committee of the institution (CE23665) on 13 February 2024. Male Sprague−Dawley rats (230−300 g, 8 weeks) were obtained from Dae Han Bio Link Co., Ltd. (Eumseong-gun, Republic of Korea). All rats had free access to food and water in a controlled environment for one week. […] After stirring for 5 min at 37 °C, an appropriate volume (about 200 μL) of suspension was delivered via oral gavage at a dosage of 20 mg/kg body weight. Approximately 300 μL blood samples were obtained from tail veins and placed into tubes pretreated with sodium citrate before and after 0.25, 0.5, 1, 2, 4, 8, and 24 h of dosing. Blood samples were immediately centrifuged at 5000 rpm for 10 min. All the plasma samples were stored at −80 °C until analysis. FMN from plasma samples were prepared for analysis by liquid–liquid extraction using methyl tert-butyl ether according to the following steps: 60 µL internal standard (IS) solution (10 ng/mL in 50% methanol) was added to 70 µL plasma sample and […] was placed in a 15 mL tube. The sample solution was vortexed for 10 min followed by centrifugation for 5 min at 4000 rpm. The upper organic layer was transferred to a clean test tube and evaporated on a heating block at 50 °C under nitrogen. The residue was dissolved in the 50% acetonitrile (900 µL, in 0.1% formic acid) and mixed on a vortex mixer for 30 s. Resulting sample solution was transferred to auto-sampler vials, and 5 µL aliquot was injected into the LC/MS/MS system for analysis of FMN by a validated method as described below.
The pharmacokinetic data were analyzed by Winnlene (China Pharmaceutical University, Nanjing, China), using the noncompartmental method to calculate the peak plasma concentration (Cmax), the time to reach Cmax (Tmax), and the area under the plasma concentration−time curve (AUC).
FMN quantitative analysis was carried out using Agilent 1200 system (Agilent, Waldbronn, Germany) with triple quadrupole mass spectrometry API5000 (ABSciex, Vaughan, ON, Canada) operated in negative electrospray ionization using MRM mode. A Luna C8(2) column (2.1 mm I.D., 100 mm length, 5 μm; Phenomenex, Torrance, CA, USA) was maintained at 40 °C. Gradient elution was carried out at a flow rate of 0.3 mL/min using mobile phase A (distilled water) and mobile phase B (acetonitrile). The gradient applied was as follows: from 0 to 2.5 min, 50% B; from 2.6 to 7.0 min, 95% B; and from 7.1 to 11.5 min, 50% B. Sample volumes of 5 μL were injected. The fragmentation transitions were m/z 267.1 → 252.0 for FMN and m/z 197.0 → 92.0 for […], respectively. Optimized instrument settings specific for FMN and IS were as follows: curtain gas, 20 psi; ion source gas 1, 50 psi; ion source gas 2, 50 psi; ion spray voltage, −4500 V; turbo heater temperature, 650 °C. The precursor ions of FMN and IS were formed using declustering potentials of −90 and −40 V, respectively, and their precursor ions were fragmented at collision energies of −28 and −42 eV by collision-activated dissociation with nitrogen at a pressure setting of 5 (arbitrary units). Both quadrupoles were maintained at unit resolution. The ratio of the standard to IS peak area was used for calibration by linear regression analysis.

[2] = Powder dissolution experiment in bio-relevant media (FaSSGF, FaSSIF); details: 37 °C
Experimental: Bio-relevant media, FaSSGF and FaSSIF, were used for powder dissolution tests to mimic in vivo environments.
Powder samples were sieved through a 300 µm sieve. FaSSGF and FaSSIF were prepared according to the literature, except pepsin was not included in FaSSGF [41]. Samples equivalent to 5 mg of FMN were added to 20 mL glass vials containing 10 mL of FaSSGF or FaSSIF. Sample vials were placed in a shaking incubator (SIF-6000R, Jeio Tech, Daejeon, Republic of Korea) at 37 °C. Aliquots (1 mL) were collected at designated time points and filtered through a 0.45 µm PVDF filter and diluted with the HPLC mobile phase for HPLC analysis. Additional test for cocrystal was carried out in the presence of PVP K30 (2.5 mg/mL) in FaSSGF or FaSSIF.
FMN quantitative analysis was carried out using a Shimadzu system (Japan) equipped with a C8 column (5 μm, 4.6 mm I.D., and 150 mm length, Waters, Milford, MA, USA) at room temperature. The mobile phase was composed of methanol/water (60:40, v/v). Samples were injected in a volume of 10 μL with a total flow rate set at 1.0 mL/min. Detection was carried out at a UV wavelength of 254 nm. The area of the standard was used for calibration by linear regression analysis.

[3] = Physical stability test (PXRD after storage); type: physicochemical
Experimental: Powder samples in closed glass vials were stored at 4 and 40 °C. They were then analyzed by PXRD for crystallization at given time points. PXRD measurement conditions were the same as described above.

[4] = plasma FMN, suspension in 1% PVP-K30, n = 4

Compound	AUC(0-inf) ([1]; male, Sprague-Dawley, rat, 20 mg/kg, plasma FMN, crystalline FMN suspension in 1% PVP-K30, n = 4) [ng·h/mL]	AUC(0-t) ([1]; male, Sprague-Dawley, rat, 20 mg/kg, plasma FMN, crystalline FMN suspension in 1% PVP-K30, n = 4, mean ± SD) [ng·h/mL]	Cmax ([1]; male, Sprague-Dawley, rat, 20 mg/kg, plasma FMN, crystalline FMN suspension in 1% PVP-K30, n = 4, read-out: Cmax) [ng/mL]	half-life ([1]; male, Sprague-Dawley, rat, 20 mg/kg, plasma FMN, suspension in 1% PVP-K30, n = 4) [h]	Tmax ([1]; male, Sprague-Dawley, rat, 20 mg/kg, plasma FMN, suspension in 1% PVP-K30, n = 4, read-out: Tmax) [h]	dissolution rate and concentration at 6 h compared with crystalline FMN [2]	AUCinf [1, 4] [ng·h/mL]	Cmax [1, 4] [ng/mL]	T1/2 [1, 4] [h]	Tmax [1, 4] [h]	AUCt ([1]; plasma FMN, suspension in 1% PVP-K30, n = 4, mean ± SD) [ng·h/mL]	increase in AUC compared to crystalline FMN [1] [fold]	increase in Cmax compared to crystalline FMN [1] [fold]	physical stability (PXRD) after storage ([3]; six months at 4 and 40 °C, closed glass vials)	physical stability (PXRD) after storage ([3]; six months at 40 °C)
COc1ccc(-c2coc3cc(O)ccc3c2=O)cc1 [FMN, Formononetin]	16.4 ± 1.51	10.4 ± 3.19	1.81 ± 0.73	7.1 ± 3.35	5 ± 2										
formononetin-imidazole [FMN-IMD cocrystal]						faster dissolution rate and higher concentration at the 6-h time point	44.52 ± 19.11	8.93 ± 6.66	5.60 ± 2.19	0.44 ± 0.38	37.38 ± 20.97	3.58	4.93	remained the same for six months	no changes in the PXRD; also recorded: stable for six months
